In patent US20240245691A1 (Sitryx Therapeutics Limited, priority 2021, published 2024):
Read-outs that look alike come from different tables or passages of the source.

Assays:
[1] = test system: IL-1β; assay: THP-1 AlphaLISA IL-1β cytokine assay (differentiated THP-1 cells); assay type: cell-based; conditions: Homo sapiens
Experimental: (§1) Measuring Inhibitory Effects on IL-1V Cytokine and IL-6 Output from THP-1s
(§2) The cytokine inhibition profiles of compounds of formula (I) were determined in a differentiated THP-1 cell assay. All assays were performed in RPMI-1640 growth medium (Gibco), supplemented with 10% fetal bovine serum (FBS; Gibco), 1% penicillin-streptomycin and 1% sodium pyruvate unless specified otherwise. The IL-1β and IL-6 cytokine inhibition assays were run in a background of differentiated THP-1 cells as described below. All reagents described were from Sigma-Aldrich unless specified otherwise. Compounds were prepared as 10 mM DMSO stocks.
(§3) THP-1 cells were expanded as a suspension up to 80% confluence in appropriate growth medium. Cells were harvested, suspended, and treated with an appropriate concentration of phorbol 12-myristate 13-acetate (PMA) over a 72 hr period (37° C./5% CO2).
(§4) Following 72 hrs of THP-1 cell incubation, cellular medium was removed and replaced with fresh growth media containing 1% of FBS. Working concentrations of compounds were prepared separately in 10% FBS treated growth medium and pre-incubated with the cells for 30 minutes (37° C./5% CO2). Following the 30 minute compound pre-incubation, THP-1s were treated with an appropriate concentration of LPS and the THP-1s were subsequently incubated for a 24 hr period (37° C./5% CO2). An appropriate final concentration of Nigericin was then dispensed into the THP-1 plates and incubated for 1 hour (37° C./5% CO2) before THP-1 supernatants were harvested and collected in separate polypropylene 96-well holding plates.
(§5) Reagents from each of the IL-1β and IL-6 commercial kits (Perkin Elmer) were prepared and run according to the manufacturer's instructions. Subsequently, fluorescence signal detection in a microplate reader was measured (EnVision® Multilabel Reader, Perkin Elmer).
(§6) Percentage inhibition was calculated per cytokine by normalising the sample data to the high and low controls used within each plate (+/−LPS respectively).
(§7) Dimethyl itaconate and 4-octyl itaconate were included as comparator compounds.

[2] = test system: IL-6; assay: THP-1 AlphaLISA IL-6 cytokine assay (differentiated THP-1 cells); assay type: cell-based; conditions: Homo sapiens
Experimental: as §1, §2, §3, §4, §5, §6, §7

[3] = test system: cryo-preserved hepatocytes; assay: Hepatocyte stability assay, mouse; assay type: in vitro ADME; conditions: mouse, hepatocytes
Source text: (§8) Defrosted cryo-preserved hepatocytes (viability>70%) were used to determine the metabolic stability of a compound via calculation of intrinsic clearance (CIint; a measure of the removal of a compound from the liver in the absence of blood flow and cell binding). Clearance data are particularly important for in vitro work as they can be used in combination with in vivo data to predict the half-life and oral bioavailability of a drug.
(§9) The metabolic stability in hepatocytes assay involved a time-dependent reaction using both positive and negative controls. The cells must be pre-incubated at 37° C. then spiked with test compound (and positive control); samples taken at pre-determined time intervals were analysed to monitor the change in concentration of the initial drug compound over 60 minutes. A buffer incubation reaction (with no hepatocytes present) acted as a negative control and two cocktail solutions, containing compounds with known high and low clearance values (verapamil/7-hydroxycoumarin and propranolol/diltiazem), acted as positive controls. • 1. The assay was run with a cell concentration of 0.5×10^6 cells/mL in Leibovitz buffer. • 2. All compounds and controls were run in duplicate. • 3. Compound concentration was 10 μM. • 4. All compounds and controls were incubated with both cells and buffer to show turnover is due to hepatic metabolism. • 5. All wells on the incubation plate had 326.7 μL of either cells or buffer added. • 6. Prior to assay, cell and buffer-only incubation plates were preincubated for 10 mins at 37° C. • 7. The assay was initiated by adding compounds, 3.3 μL of 1 mM in 10% DMSO-90% Buffer; final DMSO concentration is 0.1%. • 8. Samples were taken at regular timepoints (0, 5, 10, 20, 40, 60 min) until 60 mins. • 9. Sample volume was 40 μL and added to 160 μL of crash solvent (acetonitrile with internal standard) and stored on ice. • 10. At the end of the assay, the crash plates were centrifuged at 3500 rpm for 20 mins at 4° C. • 11. 80 μL of clear supernatant was removed and mixed with 80 μL of deionised water before being analysed by LC-MS/MS.
(§10) Raw LC-MS/MS data were exported to, and analysed in, Microsoft Excel for determination of intrinsic clearance. The percentage remaining of a compound was monitored using the peak area of the initial concentration as 100%. Intrinsic clearance and half-life values were calculated using a graph of the natural log of percentage remaining versus the time of reaction in minutes.
(§11) 4-Octyl itaconate was included as a comparator compound.

[4] = Hepatocyte stability assay, mouse; assay type: in vitro ADME; conditions: mouse, hepatocytes, T½
Source text: as §8, §9, §10, §11

[5] = test system: cryo-preserved hepatocytes; assay: Hepatocyte stability assay, human; assay type: in vitro ADME; conditions: human, hepatocytes
Source text: as §8, §9, §10, §11

[6] = Hepatocyte stability assay, human; assay type: in vitro ADME; conditions: human, hepatocytes, T½
Source text: as §8, §9, §10, §11

[7] = THP-1, differentiated THP-1 cells, LPS 24 hr then Nigericin 1 hour, read-out: IL-1β (IC50)
[8] = THP-1, differentiated THP-1 cells, LPS 24 hr then Nigericin 1 hour, read-out: IL-6 (IC50)

Row | Compound | IC50 [1, 7] | IC50 [2, 8] | Clint [3] | half-life at 10 μM [4] | Clint [5] | half-life at 10 μM [6] | IC50 ([1]; THP-1, read-out: IL-1β (IC50)) | IC50 ([2]; THP-1, read-out: IL-6 (IC50))
1 | C=C(CC(=O)N[C@@H](C)c1ccc(C(F)(F)C(F)(F)F)cc1)C(=O)O [Example 20, (S)-2-methylene-4-oxo-4-((1-(4-(perfluoroethyl)phenyl)ethyl)amino)butanoic acid] | 17.4 µM | > 100 µM | 38 μL min^−1 10^−6 cells | 0.633 h | <3 μL min^−1 10^−6 cells | > 7.67 h |  | 
2 | C=C(CC(=O)N[C@@H](C)c1ccc(C(F)(F)F)cc1)C(=O)OC1(C)COC1 [Example 28, 3-methyloxetan-3-yl (S)-2-methylene-4-oxo-4-((1-(4-(trifluoromethyl)phenyl)ethyl)amino)butanoate] |  |  | >460 μL min^−1 10^−6 cells | < 0.05 h | 80 μL min^−1 10^−6 cells | 0.3 h | 10.5 µM | 5.6 µM
3 | C=C(CC(=O)N[C@@H](C)c1ccc(C(F)(F)F)cn1)C(=O)O [Example 30, (S)-2-methylene-4-oxo-4-((1-(5-(trifluoromethyl)pyridin-2-yl)ethyl)amino) butanoic acid] | 9.2 µM | > 100 µM | <3 μL min^−1 10^−6 cells | > 7.67 h | <3 μL min^−1 10^−6 cells | > 7.67 h |  | 
4 | C=C(CC(=O)NC1(c2ccc(C(F)(F)F)cn2)CCC1)C(=O)O [Example 39, 2-methylene-4-oxo-4-((1-(5-(trifluoromethyl)pyridin-2-yl)cyclobutyl)amino) butanoic acid] | 15.4 µM | > 100 µM | <3 μL min^−1 10^−6 cells | > 7.67 h | <3 μL min^−1 10^−6 cells | > 7.67 h |  | 
5 | C=C(CC(=O)NC1CCc2cc(C(F)(F)F)ccc21)C(=O)O (stereo not drawn) [Example 40, 2-methylene-4-oxo-4-((5-(trifluoromethyl)-2,3-dihydro-1H-inden-1-yl)amino) butanoic acid] | 26.9 µM | > 100 µM | <3 μL min^−1 10^−6 cells | > 7.67 h | <3 μL min^−1 10^−6 cells | > 7.67 h |  | 
6 | C/C=C(/CC(=O)N[C@@H](C)c1ccc(C(F)(F)F)cc1)C(=O)O [Example 41, (S,Z)-2-(2-oxo-2-((1-(4-(trifluoromethyl)phenyl)ethyl)amino)ethyl)but-2-enoic acid] |  |  | <3 μL min^−1 10^−6 cells | > 7.67 h | <3 μL min^−1 10^−6 cells | > 7.67 h | 24.3 µM | > 31.6 µM
7 | C[C@H](NC(=O)C/C(=C\c1ccccc1)C(=O)O)c1ccc(C(F)(F)F)cc1 [Example 47, (S,E)-2-benzylidene-4-oxo-4-((1-(4-(trifluoromethyl)phenyl)ethyl)amino)butanoic acid] | > 100 µM | > 100 µM | 12 μL min^−1 10^−6 cells | 2.2 h | <3 μL min^−1 10^−6 cells | > 7.67 h |  | 
8 | C[C@H](NC(=O)C/C(=C\CN(C)C)C(=O)O)c1ccc(C(F)(F)F)cc1 [Example 49, (S,E)-4-(dimethylamino)-2-(2-oxo-2-((1-(4-(trifluoromethyl)phenyl)ethyl)amino)ethyl)but-2-enoic acid] |  |  | <3 μL min^−1 10^−6 cells | > 7.67 h | <3 μL min^−1 10^−6 cells | > 7.67 h | 16.5 µM | > 100 µM

Continued, in another order:

Row | IC50 [1, 7] | IC50 [2, 8] | Clint [3] | half-life at 10 μM [4] | Clint [5] | half-life at 10 μM [6] | Compound | IC50 ([1]; THP-1, read-out: IL-1β (IC50)) | IC50 ([2]; THP-1, read-out: IL-6 (IC50))
9 | 4 µM | > 100 µM | 76 μL min^−1 10^−6 cells | 0.367 h | <3 μL min^−1 10^−6 cells | > 7.67 h | C=C(CC(=O)N[C@H](c1ccc(C(F)(F)F)cc1)C(F)(F)F)C(=O)O [Example 21, (R)-2-methylene-4-oxo-4-((2,2,2-trifluoro-1-(4-(trifluoromethyl)phenyl)ethyl)amino)butanoic acid] |  | 
10 | 5.1 µM | 3.9 µM | >460 μL min^−1 10^−6 cells | < 0.05 h | 62 μL min^−1 10^−6 cells | 0.4 h | C=C(CC(=O)N[C@@H](C)c1ccc(C(F)(F)F)cc1)C(=O)OCCN(C)C [Example 26, 2-(dimethylamino)ethyl (S)-2-methylene-4-oxo-4-((1-(4-(trifluoromethyl)phenyl)ethyl)amino)butanoate] |  | 
11 | 1.82 µM | 3.64 µM | 205 μL min^−1 10^−6 cells | 0.167 h | 151 μL min^−1 10^−6 cells | 0.183 h | C=C(CC(=O)N[C@@H](C)c1ccc(C(F)(F)F)cn1)C(=O)OC1CS(=O)(=O)C1 [Example 33, 1,1-dioxidothietan-3-yl (S)-2-methylene-4-oxo-4-((1-(5-(trifluoromethyl)pyridin-2-yl)ethyl)amino)butanoate] |  | 
12 | 2.1 µM | > 31.6 µM | 30 μL min^−1 10^−6 cells | 0.793 h | 8 μL min^−1 10^−6 cells | 3.83 h | CC(C)C/C=C(\CC(=O)N[C@@H](C)c1ccc(C(F)(F)F)cc1)C(=O)O [Example 45, (S,E)-5-methyl-2-(2-oxo-2-((1-(4-(trifluoromethyl)phenyl)ethyl)amino)ethyl)hex-2-enoic acid] |  | 
13 | 2.3 µM | > 100 µM | 95 μL min^−1 10^−6 cells | 0.267 h | 7 μL min^−1 10^−6 cells | 3.73 h | C[C@H](NC(=O)C/C(=C/c1ccccc1)C(=O)O)c1ccc(C(F)(F)F)cc1 [Example 48, (S,Z)-2-benzylidene-4-oxo-4-((1-(4-(trifluoromethyl)phenyl)ethyl)amino)butanoic acid] |  | 
14 | 1.1 µM | > 100 µM | 13 μL min^−1 10^−6 cells | 1.73 h | <3 μL min^−1 10^−6 cells | > 7.67 h | C=C(C(=O)O)C(C)(C)C(=O)N[C@@H](C)c1ccc(C(F)(F)F)cc1 [Example 50, (S)-3,3-dimethyl-2-methylene-4-oxo-4-((1-(4-(trifluoromethyl)phenyl)ethyl)amino)butanoic acid] |  | 
15 | 3.3 µM | > 100 µM | 11 μL min^−1 10^−6 cells | 2.77 h | <3 μL min^−1 10^−6 cells | > 7.67 h | C=C(CC(=O)N[C@@H](C)c1ccc(S(F)(F)(F)(F)F)cc1)C(=O)O [Example 56, (S)-2-methylene-4-oxo-4-((1-(4-(pentafluoro-A6-sulfaneyl)phenyl)ethyl)amino)butanoic acid] |  | 
